Measured values reported in PubChem BioAssay (NCI).
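GI50 = concentration required for 50% inhibition of growth. TGI: concentration producing complete growth inhibition.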

Experiments:
Assay in all cases: NCI tumour cell line growth inhibition, 384-well format
MDA-MB-435 melanoma = test system: MDA-MB-435 melanoma
OVCAR-4 ovarian = test system: OVCAR-4 ovarian
T-47D breast = test system: T-47D breast
SNB-19 CNS = test system: SNB-19 CNS
SK-OV-3 ovarian = test system: SK-OV-3 ovarian
EKVX NSCLC = test system: EKVX NSCLC
NCI-H226 lung = test system: NCI-H226 lung
HOP-62 NSCLC = test system: HOP-62 NSCLC
SN12C renal = test system: SN12C renal
MALME-3M melanoma = test system: MALME-3M melanoma
SF-539 CNS = test system: SF-539 CNS
CCRF-CEM leukemia = test system: CCRF-CEM leukemia
LOX IMVI melanoma = test system: LOX IMVI melanoma
HL-60(TB) leukemia = test system: HL-60(TB) leukemia
NCI-H322M lung = test system: NCI-H322M lung
MDA-MB-231 breast = test system: MDA-MB-231 breast
SK-MEL-28 melanoma = test system: SK-MEL-28 melanoma
M14 melanoma = test system: M14 melanoma
A549 NSCLC = test system: A549 NSCLC
UO-31 renal = test system: UO-31 renal
HCT-116 colon = test system: HCT-116 colon
OVCAR-8 ovarian = test system: OVCAR-8 ovarian
BT-549 breast = test system: BT-549 breast
NCI-H460 NSCLC = test system: NCI-H460 NSCLC
SK-MEL-5 melanoma = test system: SK-MEL-5 melanoma
K-562 leukemia = test system: K-562 leukemia
A498 renal = test system: A498 renal
SR leukemia = test system: SR leukemia

COc1cc(OC)cc(N2CCN(C(=O)Nc3nc4cc(F)ccc4nc3OC)CC2)c1
GI50 (MDA-MB-435 melanoma): < 0.01 µM
TGI (MDA-MB-435 melanoma): 0.0212 µM
GI50 (OVCAR-4 ovarian): 0.314 µM
TGI (OVCAR-4 ovarian): 31.7 µM
GI50 (T-47D breast): 0.0554 µM
TGI (T-47D breast): 19.6 µM
GI50 (SNB-19 CNS): 0.0363 µM
TGI (SNB-19 CNS): 12.8 µM
GI50 (SK-OV-3 ovarian): 0.0351 µM
TGI (SK-OV-3 ovarian): 11.7 µM
GI50 (EKVX NSCLC): 0.0275 µM
TGI (EKVX NSCLC): 14.6 µM
GI50 (NCI-H226 lung): 0.0186 µM
TGI (NCI-H226 lung): 0.0708 µM
GI50 (HOP-62 NSCLC): 0.0218 µM
TGI (HOP-62 NSCLC): 1.7 µM
GI50 (SN12C renal): 0.028 µM
TGI (SN12C renal): 16.2 µM
GI50 (MALME-3M melanoma): 0.0247 µM
TGI (MALME-3M melanoma): 14.8 µM
GI50 (SF-539 CNS): 0.0182 µM
TGI (SF-539 CNS): 0.0495 µM
GI50 (CCRF-CEM leukemia): 0.0187 µM
TGI (CCRF-CEM leukemia): 0.0333 µM
GI50 (LOX IMVI melanoma): 0.0398 µM
TGI (LOX IMVI melanoma): 0.38 µM
GI50 (HL-60(TB) leukemia): 0.0165 µM
TGI (HL-60(TB) leukemia): 0.0306 µM
GI50 (NCI-H322M lung): 0.064 µM
TGI (NCI-H322M lung): 37.6 µM
GI50 (MDA-MB-231 breast): 0.0545 µM
TGI (MDA-MB-231 breast): 84.7 µM
GI50 (SK-MEL-28 melanoma): 0.12 µM
TGI (SK-MEL-28 melanoma): 22.3 µM
GI50 (M14 melanoma): 0.0157 µM
TGI (M14 melanoma): 0.0382 µM
GI50 (A549 NSCLC): 0.0382 µM
TGI (A549 NSCLC): 18.5 µM
GI50 (UO-31 renal): 0.0513 µM
TGI (UO-31 renal): 18.3 µM
GI50 (HCT-116 colon): 0.0312 µM
TGI (HCT-116 colon): 0.151 µM
GI50 (OVCAR-8 ovarian): 0.0276 µM
TGI (OVCAR-8 ovarian): 0.0912 µM
GI50 (BT-549 breast): 0.0237 µM
TGI (BT-549 breast): 0.0685 µM
GI50 (NCI-H460 NSCLC): 0.0211 µM
TGI (NCI-H460 NSCLC): 0.0487 µM
GI50 (SK-MEL-5 melanoma): 0.0131 µM
TGI (SK-MEL-5 melanoma): 0.0453 µM
GI50 (K-562 leukemia): 0.0174 µM
TGI (K-562 leukemia): 0.0433 µM
GI50 (A498 renal): < 0.01 µM
TGI (A498 renal): 0.0966 µM
GI50 (SR leukemia): < 0.01 µM
